Consider 12 compounds from US10233182B2, “Substituted spirocyclic inhibitors of autotaxin” (X-Rx, Inc., priority 2014, dated 2019).

Structures can show the parent of a compound that is named as a salt. Bounds are passed on as bounds.

The target of this assay is Autotaxin (Homo sapiens (Human), UniProt Q13822). The assay can be described thus: Autotaxin LPC Cascade Assay. Conditions: Autotaxin 5 nM, LPC 100 μM, choline oxidase/HRP/Ampliflu Red fluorescence read-out, 2% DMSO, RT; read-out: IC50 ATX Activity. The assay is classed as biochemical. In outline: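 Choline liberated from LPC by autotaxin during 1 h, after a 10-min RT compound preincubation, was converted through choline oxidase/HRP to a fluorescent Ampliflu Red product.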
The term IC50 denotes the concentration at which inhibition is half-maximal. For the compound `CC(C)[C@@H](NC(=O)c1ccccc1)C(=O)N1CCC2(CC1)C(=O)N(C)C(=O)N2c1ccc2[nH]ncc2c1` [Example 233, (R)—N-(1-(1-(1H-Indazol-5-yl)-3-methyl-2,4-dioxo-1,3,8-triazaspiro[4.5]decan-8-yl)-3-methyl-1-oxobutan-2-yl)benzamide], the IC50 is at least 1000 nM.

For `CC(C)[C@@H](NC(=O)c1nccs1)C(=O)N1CCC2(CC1)C(=O)N(C)C(=O)N2c1ccc2[nH]ncc2c1` [Example 234, (R)—N-(1-(1-(1H-Indazol-5-yl)-3-methyl-2,4-dioxo-1,3,8-triazaspiro[4.5]decan-8-yl)-3-methyl-1-oxobutan-2-yl)thiazole-2-carboxamide], the IC50 was at least 1000 nM.

With `CC(C)[C@@H](NC(=O)c1nc(C(F)(F)F)cs1)C(=O)N1CCC2(CC1)C(=O)N(C)C(=O)N2c1ccc2[nH]ncc2c1` [Example 235, (R)—N-(1-(1-(1H-Indazol-5-yl)-3-methyl-2,4-dioxo-1,3,8-triazaspiro[4.5]decan-8-yl)-3-methyl-1-oxobutan-2-yl)-4-(trifluoromethyl)thiazole-2-carboxamide], the IC50 is at least 1000 nM.

Turning to `CC(C)[C@H](C(=O)N1CCC2(CC1)C(=O)N(C)C(=O)N2c1ccc2[nH]ncc2c1)N(C)C(=O)c1cc(C(F)(F)F)ccc1F` [Example 236, (R)—N-(1-(1-(1H-Indazol-5-yl)-3-methyl-2,4-dioxo-1,3,8-triazaspiro[4.5]decan-8-yl)-3-methyl-1-oxobutan-2-yl)-2-fluoro-N-methyl-5-(trifluoromethyl)benzamide], the IC50 was at least 1000 nM.

In the case of `CC(C)[C@@H](NC(=O)c1cc(C(F)(F)F)ccc1F)C(=O)N1CCC2(CC1)C(=O)N(CCN(C)C)C(=O)N2c1ccc(C(=O)O)cc1` [Example 237, (R)-4-(3-(2-(Dimethylamino)ethyl)-8-(2-(2-fluoro-5-(trifluoromethyl)benzamido)-3-methylbutanoyl)-2,4-dioxo-1,3,8-triazaspiro[4.5]decan-1-yl)benzoic Acid trifluoroacetic Acid Salt], the IC50 is under 500 nM.

`CC(C)[C@@H](NC(=O)c1cc(C(F)(F)F)ccc1F)C(=O)N1CCC2(CC1)C(=O)N(CCN(C)C)CN2c1ccc(C(=O)O)cc1` [Example 238, (R)-4-(3-(2-(Dimethylamino)ethyl)-8-(2-(2-fluoro-5-(trifluoromethyl)benzamido)-3-methylbutanoyl)-4-oxo-1,3,8-triazaspiro[4.5]decan-1-yl)benzoic Acid trifluoroacetic Acid Salt]: the IC50 is under 500 nM.

As to `CC(C)[C@@H](NC(=O)c1cc(C(F)(F)F)ccc1F)C(=O)N1CCC2(CC1)C(=O)N(C)C(=O)N2c1ccncc1` [Example 239, (R)-2-Fluoro-N-(3-methyl-1-(3-methyl-2,4-dioxo-1-(pyridin-4-yl)-1,3,8-triazaspiro[4.5]decan-8-yl)-1-oxobutan-2-yl)-5-(trifluoromethyl)benzamide], the IC50 was under 500 nM.

As for `CC(C)[C@@H](NC(=O)c1cc(C(F)(F)F)ccc1F)C(=O)N1CCC2(CC1)C(=O)N(C)C(=O)N2c1cc[n+]([O-])cc1` [Example 240, (R)-4-(8-(2-(2-Fluoro-5-(trifluoromethyl)benzamido)-3-methylbutanoy)-3-methyl-2,4-dioxo-1,3,8-triazaspiro[4.5]decan-1-yl)pyridine 1-oxide], the IC50 was at least 1000 nM.

Regarding `COC1CCC(N2C(=O)N(C)C(=O)C23CCN(C(=O)[C@H](NC(=O)c2cc(C(F)(F)F)ccc2F)C(C)C)CC3)CC1` (stereo partly drawn) [Example 241, (R)-2-Fluoro-N-(1-(1-(4-methoxycyclohexyl)-3-methyl-2,4-dioxo-1,3,8-triazaspiro[4.5]decan-8-yl)-3-methyl-1-oxobutan-2-yl)-5-(trifluoromethyl)benzamide], the IC50 was at least 1000 nM.

As to `CC(C)[C@@H](NC(=O)c1cc(C(F)(F)F)ccc1F)C(=O)N1CCC2(CC1)C(=O)N(C)C(=O)N2C1CCCCC1` [Example 242, (R)—N-(1-(1-Cyclohexyl-3-methyl-2,4-dioxo-1,3,8-triazaspiro[4.5]decan-8-yl)-3-methyl-1-oxobutan-2-yl)-2-fluoro-5-(trifluoromethyl)benzamide], the IC50 is under 500 nM.

In the case of `CC(C)[C@@H](NC(=O)c1cc(C(F)(F)F)ccc1F)C(=O)N1CCC2(CC1)C(=O)N(C)C(=O)N2c1ccc2ocnc2c1` [Example 245, (R)—N-(1-(1-(Benzo[d]oxazol-5-yl)-3-methyl-2,4-dioxo-1,3,8-triazaspiro[4.5]decan-8-yl)-3-methyl-1-oxobutan-2-yl)-2-fluoro-5-(trifluoromethyl)benzamide], the IC50 was under 500 nM.

Consider `Cc1nc2cc(N3C(=O)N(C)C(=O)C34CCN(C(=O)[C@H](NC(=O)c3cc(C(F)(F)F)ccc3F)C(C)C)CC4)ccc2o1` [Example 246, (R)—N-(1-(1-(2-Methylbenzo[d]oxazol-5-yl)-3-methyl-2,4-dioxo-1,3,8-triazaspiro[4.5]decan-8-yl)-3-methyl-1-oxobutan-2-yl)-2-fluoro-5-(trifluoromethyl)benzamide], for which the IC50 was under 500 nM.
